A value given as a limit tells only on which side of the number the result lay.

IC50 data for 17 compounds are collected here from patent publication US11866430B2, “Naphthyridinone compounds useful as T cell activators” (priority 2018, dated 2024).

Experiment [1] concerns Jurkat AP1-luciferase Reporter. The experiment can be described thus: DGK AP1-Reporter Assay. It is filed as cell-based. The following applies: Homo sapiens, Jurkat, read-out: API-Luciferase Reporter IC50, Table 3. The protocol: The Jurkat AP1-luciferase Reporter was generated using the Cignal Lenti AP1 Reporter (luc) Kit from SABiosciences (CLS-011L).
The sample size was 30 nl per well; and one destination plate per source plate. The cell suspensions were prepared by transferring 40 mL cells (2×20 mL) to clean 50 mL conical tubes. The cells were concentrated by centrifugation (1200 rpm; 5 mins; ambient temperature). […] The cell plates were incubated for 20 minutes at 37° C., and 5% CO2.
During the incubation, anti-CD3 antibody (αCD3) solutions were prepared by mixing 3 μl αCD3 (1.3 mg/mL) with 10 mL medium [final conc=0.4 μg/mL]. Next, 1.5 μl αCD3 (1.3 mg/mL) was mixed with 0.5 mL medium [final conc=4 μg/mL]. After 20 minutes, 10 μl medium was added to all wells in column 1, wells A to M, and 10 μl αCD3 (4 μg/mL) per well was added in column 1, rows N to P for reference. Then using a multi-channel pipette, 10 μl αCD3 (0.4 μg/mL) per well was added. The αCD3 stimulated +/− compound-treated cells were incubated at 37° C., 5% CO2 for 6 hours.
During this incubation period. Steady-Glo (Promega E2520) reagent was slowly thawed on to ambient temperature. Next, 20 μl Steady-Glo reagent per well was added using a multi-drop Combi-dispenser. Bubbles were removed by centrifugation (2000 rpm, ambient temperature, 10 sees). The cells were incubated at room temperature for 5 minutes. Samples were characterized by measuring the Relative Light Units (RLU) with an using Envision Plate Reader Instrument on a luminescence protocol.

The target of experiment [2] is T1, human DGKζ (Homo sapiens (Human), UniProt Q13574). The experiment can be described thus: DGKζ assay (detergent/lipid micelle substrate). In kind it is biochemical. The settings on record: detergent/lipid micelle substrate; read-out: DGKζ IC50. The method, boiled down: (§1)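 Full-length human DGKα or DGKζ (C-terminal His tag, Sf9-expressed; 20 nM 4× stock) was preincubated 10 min at room temperature with PS/DAG octyl glucoside micelles in MOPS pH 7.5 buffer with MgCl2, CaCl2 and DTT. It was then started with ATP (300 uM addition) and run for 1 hr, with ADP-Glo luminescence read-out.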

In experiment [3] the target is T2, human DGKα (Homo sapiens (Human), UniProt P23743). In words: biochemical. The method, boiled down: as §1
Experiment [4] has as its target T2, human DGKα. In words: DGKα LIPGLO assay (extruded liposome substrate). It is filed as biochemical. A digest of the protocol:
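Human full-length DGKα, His-tagged and produced in Sf9 cells, assayed at 20 nM (4× stock) on extruded liposomes of PS, 0.25 mM DAG and 2.75 mM PC, preincubated 10 min. Reaction started with 300 μM ATP (stock) and ran 1 h in MOPS pH 7.5/MgCl2/CaCl2/DTT buffer.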

Experiment [5] relates to pre-activated CD4 T cells and Raji cells. The experiment can be described thus: Raji CD4 T Cell IL2 Assay. In kind it is cell-based. The following applies: Homo sapiens, Raji.
Experiment [6] has as its target T1, human DGKζ. In words: DGKζ LIPGLO assay (extruded liposome substrate). The settings on record: extruded liposome substrate; read-out: DGKζ LIPGLO IC50. In kind it is biochemical. The method, boiled down:
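Recombinant DGKζ (Sf9-expressed, Ni/SEC/SP-purified) preincubated 10 min with extruded 100 nm PC/DAG/PS liposomes in 50 mM MOPS pH 7.5, 100 mM NaCl, 10 mM MgCl2, 1 μM CaCl2, 1 mM DTT. Started with 300 uM ATP solution (stock, pre-addition); 1 hr reaction. ADP-Glo luminescence; IC50 from 11 concentrations.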

Where [7] appears, read: detergent/lipid micelle substrate, read-out: DGKα IC50.

T2 sequence (P23743 other isoform, or with tags, fused parts or gaps): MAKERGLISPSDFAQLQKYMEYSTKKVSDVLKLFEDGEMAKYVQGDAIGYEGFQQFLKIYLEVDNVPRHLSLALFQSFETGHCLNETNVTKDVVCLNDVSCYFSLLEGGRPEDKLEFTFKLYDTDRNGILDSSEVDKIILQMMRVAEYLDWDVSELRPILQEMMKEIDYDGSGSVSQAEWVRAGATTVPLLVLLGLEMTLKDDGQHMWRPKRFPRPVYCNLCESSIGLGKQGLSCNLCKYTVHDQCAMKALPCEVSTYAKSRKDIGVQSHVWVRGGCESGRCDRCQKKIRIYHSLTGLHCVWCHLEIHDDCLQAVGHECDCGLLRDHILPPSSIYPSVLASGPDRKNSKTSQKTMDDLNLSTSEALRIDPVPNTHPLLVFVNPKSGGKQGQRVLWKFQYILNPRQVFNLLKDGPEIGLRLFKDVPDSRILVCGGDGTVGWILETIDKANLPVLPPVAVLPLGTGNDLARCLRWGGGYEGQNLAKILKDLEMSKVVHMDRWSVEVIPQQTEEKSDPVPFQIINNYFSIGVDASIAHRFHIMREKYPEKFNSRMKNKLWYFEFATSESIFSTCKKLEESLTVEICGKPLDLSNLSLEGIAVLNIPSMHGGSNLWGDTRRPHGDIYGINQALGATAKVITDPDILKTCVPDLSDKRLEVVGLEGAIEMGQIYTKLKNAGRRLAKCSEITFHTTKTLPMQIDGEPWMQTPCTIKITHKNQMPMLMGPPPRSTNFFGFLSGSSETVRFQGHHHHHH
T1 sequence (Q13574 other isoform, or with tags, fused parts or gaps): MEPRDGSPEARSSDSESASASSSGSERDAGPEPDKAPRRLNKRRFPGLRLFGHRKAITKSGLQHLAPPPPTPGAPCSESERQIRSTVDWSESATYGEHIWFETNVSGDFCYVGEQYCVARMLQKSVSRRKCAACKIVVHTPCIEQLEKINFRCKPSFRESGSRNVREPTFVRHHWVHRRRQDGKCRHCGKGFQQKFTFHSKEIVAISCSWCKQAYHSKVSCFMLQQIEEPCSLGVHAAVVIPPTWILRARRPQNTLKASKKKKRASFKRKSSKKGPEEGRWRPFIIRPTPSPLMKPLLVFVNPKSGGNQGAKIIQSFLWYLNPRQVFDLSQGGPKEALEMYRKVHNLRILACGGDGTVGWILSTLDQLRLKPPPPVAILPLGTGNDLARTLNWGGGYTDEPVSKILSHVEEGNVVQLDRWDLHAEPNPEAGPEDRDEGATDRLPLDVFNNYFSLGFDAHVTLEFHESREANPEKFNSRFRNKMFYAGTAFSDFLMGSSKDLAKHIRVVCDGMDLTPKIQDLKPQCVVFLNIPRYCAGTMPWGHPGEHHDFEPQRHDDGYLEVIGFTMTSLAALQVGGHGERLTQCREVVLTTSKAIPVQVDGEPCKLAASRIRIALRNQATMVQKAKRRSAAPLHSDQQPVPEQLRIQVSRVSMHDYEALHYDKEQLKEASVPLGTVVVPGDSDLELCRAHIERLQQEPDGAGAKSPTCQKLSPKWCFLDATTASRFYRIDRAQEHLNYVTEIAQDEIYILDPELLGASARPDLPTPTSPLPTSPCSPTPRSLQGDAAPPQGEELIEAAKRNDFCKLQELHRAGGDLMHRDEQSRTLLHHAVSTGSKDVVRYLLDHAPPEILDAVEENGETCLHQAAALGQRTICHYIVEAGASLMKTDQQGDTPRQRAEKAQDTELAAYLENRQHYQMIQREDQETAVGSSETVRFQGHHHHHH

What is called IC50 is the point on the concentration scale where inhibition reaches its midpoint. Take `COc1cc(F)ccc1C(c1ccc(F)cc1)N1CCN(c2c(C#N)c(=O)n(C)c3ccc(Br)nc23)CC1` (racemic) [Example 15, 6-bromo-4-{4-[(4-fluoro-2-methoxyphenyl)(4-fluorophenyl)methyl]piperazin-1-yl}-1-methyl-2-oxo-1,2-dihydro-1,5-naphthyridine-3-carbonitrile]: the IC50 in experiment [1] is 1820 nM; in experiment [2], 58000 nM; in experiment [3] (setting [7]), 550 nM.
The corresponding values for `CC(c1ccc(F)cc1)N1CCN(c2c(C#N)c(=O)n(C)c3ccc(Br)nc23)CC1` (racemic) [Example 22, 6-bromo-4-{4-[1-(4-fluorophenyl)ethyl]piperazin-1-yl}-1-methyl-2-oxo-1,2-dihydro-1,5-naphthyridine-3-carbonitrile] are 1530 nM, over 81000 nM and 70 nM.
Turning to `CCC(c1ccc(F)cc1)N1CCN(c2c(C#N)c(=O)n(C)c3ccc(Br)nc23)CC1` (racemic) [Example 25, 6-bromo-4-{4-[1-(4-fluorophenyl)propyl]piperazin-1-yl}-1-methyl-2-oxo-1,2-dihydro-1,5-naphthyridine-3-carbonitrile], the IC50 in experiment [1] is 1150 nM; in experiment [2], over 81000 nM; in experiment [3] (setting [7]), 41 nM.
Consider `Cn1c(=O)c(C#N)c(N2CCN(CC(O)c3ccc(F)cc3)CC2)c2nc(Br)ccc21` (racemic) [Example 28, 6-bromo-4-{4-[2-(4-fluorophenyl)-2-hydroxyethyl]piperazin-1-yl}-1-methyl-2-oxo-1,2-dihydro-1,5-naphthyridine-3-carbonitrile], for which the IC50 is 4450 nM in experiment [1], over 81000 nM in experiment [2] and 1300 nM in experiment [3] (setting [7]).
On to `COCCn1c(=O)c(C#N)c(N2CCN(C(c3ccc(F)cc3)c3ccc(F)cc3OC)CC2)c2nc(Br)ccc21` (racemic) [Example 114, 6-bromo-4-(4-((4-fluoro-2-methoxyphenyl)(4-fluorophenyl)methyl)piperazin-1-yl)-1-(2-methoxyethyl)-2-oxo-1,2-dihydro-1,5-naphthyridine-3-carbonitrile], for which the values for the IC50 in experiment [1], in experiment [2] and in experiment [3] (setting [7]) were 4120 nM, 100000 nM and 120000 nM, respectively.
As for `C#CCn1c(=O)c([N+](=O)[O-])c(N2CCN(C(c3ccc(F)cc3)c3ccccc3O)CC2)c2nc(C#N)ccc21` (racemic) [Example 132, 8-(4-((4-fluorophenyl)(2-hydroxyphenyl)methyl)piperazin-1-yl)-7-nitro-6-oxo-5-(prop-2-yn-1-yl)-5,6-dihydro-1,5-naphthyridine-2-carbonitrile], the IC50 in experiment [1] amounted to 80 nM; in experiment [2] it was 150 nM; in experiment [3] (DGKα IC50, detergent/lipid micelle substrate), 3300 nM.
As for `C#CCn1c(=O)c([N+](=O)[O-])c(N2CCN(C(C)c3ccc(F)cc3)CC2)c2nc(C#N)ccc21` (racemic) [Example 135, 8-(4-(1-(4-fluorophenyl)ethyl)piperazin-1-yl)-7-nitro-6-oxo-5-(prop-2-yn-1-yl)-5,6-dihydro-1,5-naphthyridine-2-carbonitrile], the IC50 was 340 nM in experiment [1], 1300 nM in experiment [2] and 180 nM in experiment [3] (setting [7]).
In the case of `C#CCn1c(=O)c([N+](=O)[O-])c(N2CCN(C(CC)c3ccc(F)cc3)CC2)c2nc(C#N)ccc21` (racemic) [Example 139, 8-{4-[1-(4-fluorophenyl)propyl]piperazin-1-yl}-7-nitro-6-oxo-5-(prop-2-yn-1-yl)-5,6-dihydro-1,5-naphthyridine-2-carbonitrile], the figures for the IC50 in experiment [1], in experiment [2] and in experiment [3] (setting [7]) were 130 nM, 910 nM and 410 nM, respectively.
The corresponding values for `COCCn1c(=O)c([N+](=O)[O-])c(N2CCN(C(C)c3ccc(F)cc3)CC2)c2nc(C#N)ccc21` (racemic) [Example 148, 8-(4-(1-(4-fluorophenyl)ethyl)piperazin-1-yl)-5-(2-methoxyethyl)-7-nitro-6-oxo-5,6-dihydro-1,5-naphthyridine-2-carbonitrile] are 870 nM, 28000 nM and 15000 nM.
Turning to `COCCn1c(=O)c(C#N)c(N2CCN(C(c3ccc(F)cc3)c3ccc(F)cc3)CC2)c2nc(Br)ccc21` [Example 113, 4-(4-(bis(4-fluorophenyl)methyl)piperazin-1-yl)-6-bromo-1-(2-methoxyethyl)-2-oxo-1,2-dihydro-1,5-naphthyridine-3-carbonitrile], in experiment [1], the IC50 is 580 nM.
As to `Cn1c(=O)c(C#N)c(N2CCN(Cc3cc(O)cc(F)c3)CC2)c2nc(Cl)ccc21` [Example 338, 6-chloro-4-{4-[(3-fluoro-5-hydroxyphenyl)methyl]piperazin-1-yl}-1-methyl-2-oxo-1,2-dihydro-1,5-naphthyridine-3-carbonitrile], the IC50 is 5100 nM in experiment [4]; 580 nM in experiment [5]; over 240000 nM in experiment [2]; 1100 nM in experiment [3] (setting [7]); 66000 nM in experiment [6].
With `Cn1c(=O)c(C#N)c(N2CCN(Cc3cc(C#N)ccc3F)CC2)c2nc(Cl)ccc21` [Example 340, 6-chloro-4-{4-[(5-cyano-2-fluoro-phenyl)methyl]piperazin-1-yl}-1-methyl-2-oxo-1,2-dihydro-1,5-naphthyridine-3-carbonitrile], the IC50 is 3400 nM in experiment [4]; 690 nM in experiment [5]; over 240000 nM in experiment [2]; 4200 nM in experiment [3] (setting [7]); 17000 nM in experiment [6].
For `Cn1c(=O)c(C#N)c(N2CCN(Cc3ccc(O)c(F)c3)CC2)c2nc(Cl)ccc21` [Example 357, 6-chloro-4-{4-[(3-fluoro-4-hydroxyphenyl)methyl]piperazin-1-yl}-1-methyl-2-oxo-1,2-dihydro-1,5-naphthyridine-3-carbonitrile], the IC50 in experiment [4] was 85 nM; in experiment [5] it was 5000 nM; in experiment [2], over 240000 nM; in experiment [3] (setting [7]), 28 nM; in experiment [6] it was 47000 nM.
In the case of `Cn1c(=O)c(C#N)c(N2CCN(Cc3cccc4c3NC(=O)C4)CC2)c2nc(Br)ccc21` [Example 374, 6-bromo-1-methyl-2-oxo-4-{4-[(2-oxo-2,3-dihydro-1H-indol-7-yl)methyl]piperazin-1-yl}-1,2-dihydro-1,5-naphthyridine-3-carbonitrile], in experiment [1], the IC50 stood at 7930 nM.
Take `Cn1c(=O)c(C#N)c(N2CCN(Cc3cccc4c3NC(=O)C4)CC2)c2nc(Cl)ccc21` [Example 376, 6-chloro-1-methyl-2-oxo-4-{4-[(2-oxo-2,3-dihydro-1H-indol-7-yl)methyl]piperazin-1-yl}-1,2-dihydro-1,5-naphthyridine-3-carbonitrile]: the 50% inhibitory concentration (IC50) in experiment [1] stood at 10000 nM.
For the compound `Cn1c(=O)c(C#N)c(N2CCN(Cc3cccc(C(C)(C)C)c3O)CC2)c2nc(Cl)ccc21` [Example 384, 4-{4-[(3-tert-butyl-2-hydroxyphenyl)methyl]piperazin-1-yl}-6-chloro-1-methyl-2-oxo-1,2-dihydro-1,5-naphthyridine-3-carbonitrile], in experiment [1], the IC50 came out at 180 nM.
In the case of `Cc1cccc(Cl)c1CN1CCN(c2c(C#N)c(=O)n(C)c3ccc(Cl)nc23)CC1` [Example 419, 6-chloro-4-{4-[(2-chloro-6-methylphenyl)methyl]piperazin-1-yl}-1-methyl-2-oxo-1,2-dihydro-1,5-naphthyridine-3-carbonitrile], the IC50 in experiment [4] was 49000 nM; in experiment [5], 290 nM; in experiment [2], over 81000 nM; in experiment [3] (setting [7]), 81000 nM; in experiment [6], 15000 nM.
